Data reported in patent US20080318842A1, “Cyclic Isodityrosine Derivatives” (priority 2004, published 2008).
Converted amounts (≈) assume the structure as drawn. Like-named read-outs stand apart in the source and are kept apart here.

Legend:
[1] = system: mouse peritoneal macrophages; test: Inhibition of production of cholesteryl ester from [14C] oleic acid in mouse peritoneal macrophages; type: cell-based; settings: for IC50: Peritoneal macrophage
Procedure: Production of a cholesteryl ester in mouse peritoneal macrophages was performed by partly modifying the method by Nishikawa et al (Nishikawa et al., the Journal of Biological Chemistry (JBC) 265, pp. 5226-5231, 1990). Mouse peritoneal macrophages were prepared from an ICR female mouse as follows. First, cells were isolated from the mouse peritoneal cavity using a Hank's balanced salt solution (HBSS) and then suspended in a GIT medium so as to have a concentration of 2×10^6 cells/mL. Subsequently, 0.25 mL of the suspension was placed in each of 48 wells on a plastic culture plate, and the plate was cultured in the presence of 5% CO2 at 37° C. for two hours. In order to remove non-adhesive cells, each well was then washed with 0.25 mL of an HBSS three times. Finally, 0.25 mL of a culture medium A (Dulbecco's modified Eagle's medium (DMEM) containing 100 u/mL of penicillin, 100 μg/mL of streptomycin, and an 8% lipoprotein-free serum) was added thereto.
The effect of inhibiting the synthesis of a cholesteryl ester of the agents (eurypamides A, A′, B, and D, and Compounds (1) to (12)) in the macrophages thus prepared was evaluated as follows: The amount of [^14C] cholesteryl ester and [^14C] triacylglycerol synthesized from [^14C] oleic acid was measured as follows, and a concentration of the agent at which the synthesis was inhibited by 50% (IC50: μg/mL) was determined.
First, the macrophages (5×10^5 cells/0.25 mL/well) were cultured in a plastic culture plate with 48 wells. Subsequently, 5 μL of [^14C] oleic acid (1 nmol, 0.05 μCi, which was dissolved in a phosphate buffered saline (PBS) containing 10% ethanol), liposome (having a composition of phosphatidylcholine/phosphatidylserine/diacetylphosphate/cholesterol=10/10/2/5 (nmol) in 10 μL of 0.3 M glucose), and 2.5 μL of each agent dissolved in methanol were added to each well. The plate was cultured for 14 hours, and the culture medium was then removed. Each of the wells was washed with a PBS three times. Subsequently, 0.25 mL of a PBS containing 0.1% (w/v) sodium dodecyl sulfate (SDS) was added to each well to lyse the cells. Lipid in the cells was extracted by the method by Bligh & Dyer (Bligh & Dyer, Can. J. Biochem. Physiol., 37, pp. 911-917, 1959). The volume of the organic solvent was reduced by centrifugation in vacuum. The solution was spotted on a thin-layer chromatography (TLC) plate (silica gel […], thickness: 0.5 mm, manufactured by Merck Ltd.) and developed with hexane/diethyl ether/acetic acid (70/30/1, v/v). The amounts of separated [^14C] cholesteryl oleate and [^14C] triacylglycerol were analyzed with a bioimage analyzer (BAS2000 manufactured by FUJIFILM Corporation).

[2] = system: MRSA K24 strain; test: Imipenem activity-potentiating effect, paper-disc method on plate containing imipenem; type: cell-based, methicillin-resistant Staphylococcus aureus; settings: for MRSA (mm) [10 μg/6 mm disc]: diameter of inhibition circle, 10 μg agent per 6 mm paper disc, plate with imipenem 10 μg/mL, 37° C., 20 hours
Procedure: In this example, clinically isolated MRSA K24 strain was used as an assay strain. A plate for control was prepared by adding 1.5% of agar (manufactured by Shimizu Shokuhin Kaisha, Ltd.) to Mueller-Hinton Broth (manufactured by DIFCO Laboratories), and a plate for assay was prepared by adding imipenem (trade name: Tienam for intramuscular injection, titer: 0.5, manufactured by Banyu Pharmaceutical Co., Ltd.) to the above composition so that the final concentration of imipenem was 10 μg/mL. These plates were used as assay plates. An inoculum solution was prepared by culturing the assay strain in Mueller-Hinton Broth for one night, and diluting the culture solution with the same culture medium so as to have a concentration of 0.5 McFarland units (about 10^8 cfu/mL). This inoculum solution was applied on each of the plates with a sterile cotton swab in accordance with the National Committee For Clinical Laboratory Standards (NCCLS) method. The antibacterial activities against the assay strain in the plates were evaluated by a paper-disc method as follows. Paper discs with a diameter of 6 mm impregnated with 10 μg of assay medical agents (eurypamides A, A′, B, and D, and Compounds (1) to (12)) were placed on each of the plates, and the plates were cultured at 37° C. for 20 hours.
On the plate for control, the assay strain was grown under the paper discs. […] In addition, the assay strain could be grown on the plate for assay. […] If the compound impregnated in the paper disc acts in combination with imipenem to exert anti-MRSA activity, growth of the assay strain would not be observed under and around the paper disc. Therefore, in this example, the imipenem activity-potentiating effect for MRSA is represented by a diameter of an inhibition circle (the diameter passing through the center of the paper disc) on the assay plates.

[3] = Mus musculus, 14 h, read-out: Macrophage [IC50 μg/mL]
[4] = Mus musculus, read-out: IC50 of inhibiting the production of cholesteryl oleate
[5] = Mus musculus, synthesis of [14C] cholesteryl ester from [14C] oleic acid, 14 hours culture, read-out: Macrophage [IC50 μg/mL]
[6] = mouse peritoneal macrophages, read-out: IC50 of inhibiting the production of cholesteryl oleate
[7] = synthesis of [14C] cholesteryl ester from [14C] oleic acid, 14 hours culture

| Compound | IC50 [1, 3] [µg/mL] | IC50 [1, 4] [µg/mL] | effect of inhibiting the synthesis of a cholesteryl ester in macrophages, in words [1] | MRSA (mm) [10 μg/6 mm disc] [2] [mm] | imipenem activity-potentiating effect (anti-MRSA activity in combination with imipenem), in words [2] | IC50 [1, 5] [µg/mL] | IC50 [1, 6] [µg/mL] | Macrophage [IC50 μg/mL] [1, 7] |
| --- | --- | --- | --- | --- | --- | --- | --- | --- |
| COC(=O)C1Cc2cc(Br)c(c(Br)c2)Oc2cc(cc(I)c2O)C[C@H](NC(=O)OCc2ccccc2)C(=O)N[C@@H]([C@H](C)OCc2ccccc2)C(=O)N1 (some centres unmarked) [Compound (1), N-Cbz-Thr(O-benzyl)-dibromo-iodo-eurypamide B methyl ester] | 3 (≈ 3.11 µM) | 3 (≈ 3.11 µM) | have an effect of inhibiting the synthesis of a cholesteryl ester in macrophages | 8 | potentiate |  |  |  |
| COC(=O)C1Cc2cc(Br)c(c(Br)c2)Oc2cc(cc(I)c2O)C[C@H](NC(=O)OC(C)(C)C)C(=O)N[C@@H]([C@H](C)OCc2ccccc2)C(=O)N1 (some centres unmarked) [Compound (2), N-Boc-Thr(O-benzyl)-dibromo-iodo-eurypamide B methyl ester] | 3 (≈ 3.22 µM) | 3 (≈ 3.22 µM) | have an effect of inhibiting the synthesis of a cholesteryl ester in macrophages | 8 | potentiate |  |  |  |
| C[C@@H](O)[C@@H]1NC(=O)[C@@H](NC(=O)OC(C)(C)C)Cc2cc(I)c(O)c(c2)Oc2c(Br)cc(cc2Br)CC(C(=O)O)NC1=O (some centres unmarked) [Compound (3), N-Boc-dibromo-iodo-eurypamide B] | > 10 |  |  | 10 | potentiate |  |  |  |
| COC(=O)C1Cc2cc(Br)c(c(Br)c2)Oc2cc(cc(I)c2O)C[C@H](N)C(=O)N[C@@H]([C@@H](C)O)C(=O)N1 (some centres unmarked) [Compound (4), dibromo-iodo-eurypamide B methyl ester] |  |  |  | 8 | potentiate | > 10 |  |  |
| COC(=O)[C@@H]1Cc2cc(Br)c(c(Br)c2)Oc2cc(cc(I)c2O)C[C@H](N)C(=O)N[C@@H](C(C)OCc2ccccc2)C(=O)N1 (some centres unmarked) [Compound (5), Thr(O-benzyl)-dibromo-iodo-eurypamide B methyl ester] |  |  |  | 8 | potentiate | > 10 |  |  |
| COC(=O)[C@@H]1Cc2cc(Br)c(c(Br)c2)Oc2cc(cc(I)c2O)C[C@H](NC(=O)OCC2c3ccccc3-c3ccccc32)C(=O)N[C@@H](C(C)OCc2ccccc2)C(=O)N1 (some centres unmarked) [Compound (6)] |  |  | have an effect of inhibiting the synthesis of a cholesteryl ester in macrophages |  | do not potentiate | 0.32 (≈ 0.304 µM) | 0.32 (≈ 0.304 µM) |  |
| COC(=O)[C@@H]1Cc2cc(Br)c(c(Br)c2)Oc2cc(cc(I)c2O)C[C@H](NC(=O)CCCCCNC(=O)OC(C)(C)C)C(=O)N[C@@H](C(C)OCc2ccccc2)C(=O)N1 (some centres unmarked) [Compound (7)] |  |  | have an effect of inhibiting the synthesis of a cholesteryl ester in macrophages |  | do not potentiate | 4.2 (≈ 4.02 µM) | 4.2 (≈ 4.02 µM) |  |
| COC(=O)[C@@H]1Cc2cc(Br)c(c(Br)c2)Oc2cc(cc(I)c2O)C[C@H](NC(=O)C(Cc2ccccc2)NC(=O)OC(C)(C)C)C(=O)N[C@@H](C(C)OCc2ccccc2)C(=O)N1 (some centres unmarked) [Compound (8)] |  |  | have an effect of inhibiting the synthesis of a cholesteryl ester in macrophages |  | do not potentiate | 5 (≈ 4.64 µM) | 5 (≈ 4.64 µM) |  |
| CC(OCc1ccccc1)[C@@H]1NC(=O)[C@@H](NC(=O)OC(C)(C)C)Cc2cc(I)c(O)c(c2)Oc2c(Br)cc(cc2Br)C[C@@H](C(=O)O)NC1=O (some centres unmarked) [Compound (9)] | > 10 |  |  | 17 | potentiate |  |  |  |
| CC(OCc1ccccc1)[C@@H]1NC(=O)[C@@H](N)Cc2cc(I)c(O)c(c2)Oc2c(Br)cc(cc2Br)C[C@@H](C(=O)O)NC1=O (some centres unmarked) [Compound (11)] |  |  |  | 12 | potentiate | > 10 |  |  |
| COC(=O)[C@@H]1Cc2cc(Br)c(c(Br)c2)Oc2cc(cc(I)c2O)C[C@H](NC(=O)OC(C)(C)C)C(=O)N[C@@H](C(C)O)C(=O)N1 (some centres unmarked) [Compound (12), N-Boc-dibromo-iodo-eurypamide B methyl ester] | > 10 |  |  | 9 | potentiate |  |  |  |
| C[C@@H](O)[C@@H]1NC(=O)[C@@H](N)Cc2ccc(O)c(c2)Oc2ccc(cc2)C[C@@H](C(=O)O)NC1=O [Eurypamide B, reference compound] |  |  |  |  |  |  |  | — (The symbol “-” in the column of macrophage in Table 1 means that the compound did not exhibit inhibition in its amount of 10 μg/mL) |
| Eurypamide A [reference compound] |  |  |  |  |  |  |  | — (The symbol “-” in the column of macrophage in Table 1 means that the compound did not exhibit inhibition in its amount of 10 μg/mL) |
| Eurypamide A′ [reference compound] |  |  |  |  |  |  |  | — (The symbol “-” in the column of macrophage in Table 1 means that the compound did not exhibit inhibition in its amount of 10 μg/mL) |
| Eurypamide D [reference compound] |  |  |  |  |  |  |  | — (The symbol “-” in the column of macrophage in Table 1 means that the compound did not exhibit inhibition in its amount of 10 μg/mL) |
